Key:
Assay in all cases: biochemical
[1] = molecular target: T1, panel of 374 wild-type kinases (Homo sapiens, UniProt O14733); settings: read-out: % Enzyme Activity (relative to DMSO controls), MKK7
T1 construct: purchased Reaction Biology Corporation
T1 sequence (O14733 1-419): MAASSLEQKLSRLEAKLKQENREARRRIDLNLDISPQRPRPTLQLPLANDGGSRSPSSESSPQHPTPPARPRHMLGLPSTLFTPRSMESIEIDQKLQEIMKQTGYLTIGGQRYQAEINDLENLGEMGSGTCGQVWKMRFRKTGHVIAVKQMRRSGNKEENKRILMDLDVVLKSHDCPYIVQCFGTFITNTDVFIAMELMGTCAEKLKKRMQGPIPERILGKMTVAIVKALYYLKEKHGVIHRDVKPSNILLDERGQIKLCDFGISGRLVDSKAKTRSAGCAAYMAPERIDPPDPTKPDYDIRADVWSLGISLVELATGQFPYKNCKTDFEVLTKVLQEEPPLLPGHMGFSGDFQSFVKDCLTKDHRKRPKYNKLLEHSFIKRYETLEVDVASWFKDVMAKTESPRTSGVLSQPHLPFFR

[2] = molecular target: T2, panel of 374 wild-type kinases (Homo sapiens, UniProt P41279); settings: read-out: % Enzyme Activity (relative to DMSO controls), COT1/MAP3K8
T2 construct: purchased Reaction Biology Corporation

[3] = molecular target: T3, panel of 374 wild-type kinases (Homo sapiens, UniProt Q8IVT5); settings: read-out: % Enzyme Activity (relative to DMSO controls), KSR1
T3 construct: purchased Reaction Biology Corporation
T3 sequence (Q8IVT5 1-923): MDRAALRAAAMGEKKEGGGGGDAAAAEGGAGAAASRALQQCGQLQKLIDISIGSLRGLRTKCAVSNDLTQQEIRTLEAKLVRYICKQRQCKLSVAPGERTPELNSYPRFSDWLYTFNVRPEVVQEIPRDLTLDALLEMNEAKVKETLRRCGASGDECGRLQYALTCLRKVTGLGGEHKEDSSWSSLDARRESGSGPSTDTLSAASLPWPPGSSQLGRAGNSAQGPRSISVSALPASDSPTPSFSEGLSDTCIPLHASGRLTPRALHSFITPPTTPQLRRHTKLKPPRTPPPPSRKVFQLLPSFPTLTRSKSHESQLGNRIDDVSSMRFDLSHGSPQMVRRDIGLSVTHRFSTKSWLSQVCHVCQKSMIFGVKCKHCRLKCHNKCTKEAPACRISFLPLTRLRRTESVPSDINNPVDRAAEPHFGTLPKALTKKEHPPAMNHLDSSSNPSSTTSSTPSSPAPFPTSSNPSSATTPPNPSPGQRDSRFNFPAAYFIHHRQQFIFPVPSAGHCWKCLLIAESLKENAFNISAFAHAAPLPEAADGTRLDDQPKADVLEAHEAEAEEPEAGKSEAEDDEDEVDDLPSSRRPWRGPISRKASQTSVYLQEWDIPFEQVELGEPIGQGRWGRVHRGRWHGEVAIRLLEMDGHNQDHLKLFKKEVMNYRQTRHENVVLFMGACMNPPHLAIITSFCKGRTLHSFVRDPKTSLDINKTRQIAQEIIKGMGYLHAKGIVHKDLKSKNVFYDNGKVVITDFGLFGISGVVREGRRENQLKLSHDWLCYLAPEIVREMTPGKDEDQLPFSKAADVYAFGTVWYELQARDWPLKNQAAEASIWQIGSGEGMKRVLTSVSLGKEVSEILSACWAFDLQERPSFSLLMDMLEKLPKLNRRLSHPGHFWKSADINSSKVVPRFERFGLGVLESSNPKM

[4] = molecular target: T4, panel of 374 wild-type kinases (Homo sapiens, UniProt Q92918); settings: read-out: % Enzyme Activity (relative to DMSO controls), HPK1/MAP4K1
T4 construct: purchased Reaction Biology Corporation

[5] = molecular target: T5, panel of 374 wild-type kinases (Homo sapiens, UniProt Q96PN8); settings: read-out: % Enzyme Activity (relative to DMSO controls), kinase TSSK3/STK22C
T5 construct: purchased Reaction Biology Corporation
T5 sequence (Q96PN8 1-268): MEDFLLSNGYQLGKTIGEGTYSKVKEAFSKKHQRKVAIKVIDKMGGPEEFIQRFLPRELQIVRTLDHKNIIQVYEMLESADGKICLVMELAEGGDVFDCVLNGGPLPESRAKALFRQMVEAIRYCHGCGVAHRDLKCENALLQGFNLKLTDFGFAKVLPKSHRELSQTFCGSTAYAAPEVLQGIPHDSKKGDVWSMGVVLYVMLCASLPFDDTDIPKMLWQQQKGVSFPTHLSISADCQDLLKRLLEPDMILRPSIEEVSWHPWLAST

[6] = molecular target: T6, panel of 374 wild-type kinases (Homo sapiens, UniProt Q9UPZ9); settings: read-out: % Enzyme Activity (relative to DMSO controls), LCK2/ICK
T6 construct: purchased Reaction Biology Corporation
T6 sequence (Q9UPZ9 1-632): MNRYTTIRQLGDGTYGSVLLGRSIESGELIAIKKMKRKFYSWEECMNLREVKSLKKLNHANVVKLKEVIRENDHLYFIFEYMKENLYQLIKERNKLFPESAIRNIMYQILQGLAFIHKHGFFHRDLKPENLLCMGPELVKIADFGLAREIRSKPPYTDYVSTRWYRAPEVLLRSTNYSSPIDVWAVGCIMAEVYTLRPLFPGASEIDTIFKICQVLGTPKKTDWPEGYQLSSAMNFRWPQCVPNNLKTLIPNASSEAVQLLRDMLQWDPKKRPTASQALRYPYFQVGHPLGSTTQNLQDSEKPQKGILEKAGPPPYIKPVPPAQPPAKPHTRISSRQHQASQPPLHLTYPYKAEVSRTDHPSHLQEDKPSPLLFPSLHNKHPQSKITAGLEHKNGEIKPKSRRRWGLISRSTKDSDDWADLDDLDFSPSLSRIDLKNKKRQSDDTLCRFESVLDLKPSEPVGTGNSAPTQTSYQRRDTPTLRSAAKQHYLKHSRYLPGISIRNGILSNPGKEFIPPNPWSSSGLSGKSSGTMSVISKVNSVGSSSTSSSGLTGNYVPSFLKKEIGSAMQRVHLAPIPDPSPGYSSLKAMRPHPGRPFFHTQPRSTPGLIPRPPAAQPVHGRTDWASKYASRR

T2 sequence (P41279 whole entry): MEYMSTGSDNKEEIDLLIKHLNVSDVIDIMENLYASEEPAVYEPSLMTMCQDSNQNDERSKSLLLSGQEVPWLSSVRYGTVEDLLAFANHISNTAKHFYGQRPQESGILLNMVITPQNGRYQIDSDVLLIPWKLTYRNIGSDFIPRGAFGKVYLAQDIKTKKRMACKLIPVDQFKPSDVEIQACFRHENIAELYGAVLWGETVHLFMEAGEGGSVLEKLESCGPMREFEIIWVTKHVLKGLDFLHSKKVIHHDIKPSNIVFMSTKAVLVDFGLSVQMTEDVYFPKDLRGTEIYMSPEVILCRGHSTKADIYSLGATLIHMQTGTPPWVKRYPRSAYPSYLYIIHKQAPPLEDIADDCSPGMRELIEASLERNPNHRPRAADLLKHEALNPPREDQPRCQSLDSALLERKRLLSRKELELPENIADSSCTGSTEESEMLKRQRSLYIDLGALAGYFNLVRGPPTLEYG
T4 sequence (Q92918 whole entry): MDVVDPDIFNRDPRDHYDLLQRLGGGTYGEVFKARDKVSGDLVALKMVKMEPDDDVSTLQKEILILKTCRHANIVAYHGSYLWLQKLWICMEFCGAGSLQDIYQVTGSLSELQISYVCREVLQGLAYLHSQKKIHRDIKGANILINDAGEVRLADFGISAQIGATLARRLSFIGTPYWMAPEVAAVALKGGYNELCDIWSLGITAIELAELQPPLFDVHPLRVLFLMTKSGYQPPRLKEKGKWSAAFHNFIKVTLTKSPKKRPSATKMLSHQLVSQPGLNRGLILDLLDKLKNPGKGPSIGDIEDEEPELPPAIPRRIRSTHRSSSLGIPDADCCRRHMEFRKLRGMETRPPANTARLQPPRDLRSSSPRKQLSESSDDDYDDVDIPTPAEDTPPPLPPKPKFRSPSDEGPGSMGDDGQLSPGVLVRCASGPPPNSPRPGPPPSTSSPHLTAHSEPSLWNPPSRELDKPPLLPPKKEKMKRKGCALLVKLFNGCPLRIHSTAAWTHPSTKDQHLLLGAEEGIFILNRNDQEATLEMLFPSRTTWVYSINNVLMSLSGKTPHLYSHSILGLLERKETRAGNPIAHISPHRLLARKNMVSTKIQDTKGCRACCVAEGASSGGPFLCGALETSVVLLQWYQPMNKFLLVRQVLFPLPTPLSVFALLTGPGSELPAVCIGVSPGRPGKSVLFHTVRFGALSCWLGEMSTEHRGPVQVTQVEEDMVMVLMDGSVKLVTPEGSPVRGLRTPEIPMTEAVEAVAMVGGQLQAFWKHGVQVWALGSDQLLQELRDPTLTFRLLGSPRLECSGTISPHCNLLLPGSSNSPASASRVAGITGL

SMILES: O=C(Nc1cnn(-c2csc(C(=O)NC3COC3)c2)c1)Nc1ccccc1Cl [Compound 17, 4-(4-(3-(2-chlorophenyl)ureido)-1H-pyrazol-1-yl)-N-(oxetan-3-yl)thiophene-2-carboxamide]
- remaining activity at 5 µM [1]: 112%
- remaining activity at 5 µM [2]: 92.7%
- remaining activity at 5 µM [3]: 101%
- remaining activity at 5 µM [4]: 132%
- remaining activity at 5 µM [5]: 97.7%
- remaining activity at 5 µM [6]: 112%

SMILES: Cc1sc(C(=O)NC2COC2)cc1-n1cc(NC(=O)Nc2c(F)cccc2Cl)cn1 [Compound 27, 4-(4-(3-(2-chloro-6-fluorophenyl)ureido)-1H-pyrazol-1-yl)-5-methyl-N-(oxetan-3-yl)thiophene-2-carboxamide]
- remaining activity at 10 µM ([1]; 10 uM): 120%
- remaining activity at 10 µM ([2]; 10 uM): 105%
- remaining activity at 10 µM ([3]; 10 uM): 103%
- remaining activity at 10 µM ([4]; 10 uM): 99.2%
- remaining activity at 10 µM ([5]; 10 uM): 100%
- remaining activity at 10 µM ([6]; 10 uM): 100%

SMILES: O=C(Nc1cnn(-c2csc(C(=O)NC3COC3)c2)c1)Nc1c(F)cccc1Cl [Compound 25, 4-(4-(3-(2-chloro-6-fluorophenyl)ureido)-1H-pyrazol-1-yl)-N-(oxetan-3-yl)thiophene-2-carboxamide]
- remaining activity at 5 µM [1]: 135%
- remaining activity at 5 µM [2]: 93.6%
- remaining activity at 5 µM [3]: 105%
- remaining activity at 5 µM [4]: 92.7%
- remaining activity at 5 µM [5]: 101%
- remaining activity at 5 µM [6]: 101%
